Earlier results as cited in patent US20190364946A1, “POWDERS AND TABLETS COMPRISING OMEGA-3 FATTY ACID DERIVATIVES AND METHODS FOR THEIR PRODUCTION” (OMEGATRI AS, priority 2016, published 2019).

Conditions: for Surfactants HLB: HLB of added surfactant or surfactant mixture; for HLB value: from commercial and scientific sources

## Span 80
  Surfactants HLB: 4.3

## Span 85
  Surfactants HLB: 1.8

## sorbitan monostearate
  HLB value: 4.7

## sorbitan stearate
  HLB value: 4.7
